According to patent US20190247396A1, “DENTAL TREATMENT” (KING'S COLLEGE LONDON, priority 2016, published 2019):
Entries after “also recorded” stand apart in the source; their conditions may differ.

What was measured:
[1] = test system: Axin2 (Wnt activity) in dental pulp cells; experiment: Induction of Axin2 in vivo, pulp exposure injury model, qPCR of pulp cells; design: species or system mouse; conditions: one day after injury and capping; vs control, MTA or collagen sponge
Method: A glass ionomer cement was used to cover the sponge and protect the tooth (FIG. 2G). Specifically, a layer of 3M Ketac-Cem Radiopaque was used as a capping material to seal the injured site. The injury was performed on the two upper first molars. Post-op the mice were given Vetergesic (Buprenorphine—Ceva) at the rate of 0.3 mg/kg intraperitonially as analgesic. The animals were sacrificed after 1 day.
Treated teeth were removed after 24 h along with controls consisting of untreated teeth, MTA only and collagen sponge with no inhibitor.
Molars were extracted using a 21G needle as an elevator to lift them from the alveolar bone and kept in ice cold PBS. Using a 23 scalpel blade the molars were separated at the crown-root junction, so that the pulp chamber could be visualized. Using a 0.6 mm straight tip tweezer the pulp was gently scraped from the pulp chamber and the root canal. The pulp was then placed into cold Sigma RNAlater and stored at −80° C.
The extracted cells were tested for expression of Axin2 by qPCR as described in Example 1 (FIG. 1E). Expression of Axin2 was 3× higher in inhibitor treated pulp cells when compared to controls (FIG. 1E).

[2] = test system: mouse maxillary first molars; experiment: Reparative dentine formation after pulp exposure, micro-CT mineral analysis; format: in vivo
Method: T filled with mineral=0.0017 mg.

[3] = test system: human deciduous tooth dental pulp cells; conditions: cited from earlier work
[4] = test system: mouse maxillary first molars; conditions: in vivo
Method: (§3) To test the induction of Axin2 in vivo, an injury model was developed. Mice were anaesthetized with a solution of Hypnorm (Fentanyl/fluanisone—VetaPharma Ltd.), water and Hypnovel (Midazolam—Roche) in the ratio 1:2:1 at 10 ml/kg by an intraperitoneal injection. Experimental tooth damage was created by drilling and making 0.13 mm holes in mouse maxillary first molars to expose the pulp. A rounded carbide bur FG ¼ coupled to a high speed hand piece was used to access the dentine. Once the bur cut exposed the dentine, a 30G needle was used to penetrate the pulp.
(§4) In order to protect the pulp from external contamination and stimulate dentine repair, the injury was capped either with ProRoot Mineral Trioxide Aggregate (MTA) (Maillfer Dentsply), or Kolspon (Fish Collage Type 1—Eucare Ltd) alone, or in association with 50 nM BIO (SIGMA), 5 μM CHIR99021 (SIGMA), or 50 nM Tideglusib (SIGMA) dissolved and diluted in DMSO, in contact with the pulp. Pieces of Kolspon were cut to size and soaked in solutions of the three inhibitors before being physically placed into the holes, in contact with the pulp.
(§5) The model described in Example 2 was then used to examine the effect on the formation of reparative dentine. Molars were drilled and sponges inserted and left as described in Example 2, this time for 4-6 weeks before the mice were sacrificed.
(§6) After 4 weeks decalcification in 19% EDTA the teeth were embedded in wax blocks and sectioned using 0.8 μm thickness. Sections were stained using Masson's Trichrome to reveal new dentine formation.

[5] = test system: Axin2 (Wnt activity) in 171A4 mouse dental pulp cells; experiment: In vitro drug release from Kolspon sponge, Axin2 qPCR; format: cell-based; conditions: for Wnt activity (Axin2 qPCR): drug in collagen sponge incubated with cells, 50 nM BIO, 50 nM Tideglusib, vs media or sponge without drug
Method: In vitro drug release from Kolspon sponge was tested. 171A4 cells were plated in 24-well plates and incubated (37° C., 5% CO2/95% air, 100% humidity) for 24 h using standard culture medium. Falcon™ cell culture inserts for use with 24-well plates ([…]) were placed in the wells carrying 96 mm^2 Kolspon cubes either dry or soaked in 30 μl of the drug optimal concentration for 15 and 30 minutes, 1, 6, and 12 hours. The cells were collected with TRIzol and stored at −20° C.
RNA was extracted from the cells using TRIzol (Thermo Fisher Scientific) as recommended by the manufacturer. RNA was quantified using Nanodrop and reverse transcribed into cDNA. Beta-actin was used as housekeeping gene (Forward-[…] (SEQ ID NO 1), Reverse-[…]) (SEQ ID NO 2) and Axin2 for Wnt activity (Forward-[…] (SEQ ID NO 3), Reverse- TGCCCACACTAGGCTGACA (SEQ ID NO 4).

[6] = test system: mouse maxillary first molars; experiment: Reparative dentine formation after pulp exposure, Masson's Trichrome histology
Method: as §3, §4, §5, §6

[7] = test system: mouse maxillary first molars; experiment: Reactionary dentine formation, non-exposed pulp injury model, Masson's Trichrome histology; conditions: for Structure of reactionary dentine (histology): 4 weeks after injury without pulp exposure
Method: (§1) To investigate the effect of modulation of Wnt signaling on reactionary dentine formation, a reproducible tooth damage model was established. 6 weeks old, Axin2^−CreERT2; Rosa26−mTmG (fl/+) and GPR1777(Wntless)^−pCAGCreERT2 (fl/fl) mice were injected intraperitoneally with three doses of tamoxifen (2 mg per 30 g mouse, SIGMA), one dose a day. 5 days after the last tamoxifen injection, the height of the middle cusp of mouse maxillary first molars were reduced without exposing the dental pulp, leaving a band of dentine to protect the inner pulp tissue (FIG. 5).
The exposed dentine was capped either with calcium hydroxide (Dycal; Dentsply) or mineral trioxide aggregate (MTA) (ProRoot MTA; Dentsply), or dry collagen sponge (Kolspon-Fish Collage Type 1; Eucare Ltd), or collagen sponge soaked in dimethyl sulfoxide (DMSO; SIGMA), or 50 nM Tideglusib, or 1 μM LY2157299, or 1 μM Dorsomorphin. All drugs were dissolved and diluted in DMSO. A layer of glass ionomer cement (Ketac-Cem Radiopaque; 3M ESPE) was used as a sealing material. Vetergesic (Buprenorphine—Ceva) was injected to all mice post-operative at the rate of 0.3 mg/kg by intraperitoneal injection as analgesic. The animals were sacrificed after 1 day and 4 weeks. A total of 14 genetically-modified mice (28 damaged molars) and 26 CD1 mice (52 molars) were used.
After 4 weeks decalcification in 19% EDTA pH 6, the teeth were embedded in wax blocks and sectioned at 8 μm thickness. Sections were histologically stained using Masson's Trichrome.
Sequestered latent BMP and TGF-β proteins present in the dentine matrix have been implicated in tertiary dentine formation following damage, mainly based on results obtained from in vitro experiments. The effect of inhibition of these signalling pathways in was investigated in the in vivo model of reactionary dentine formation described in Example 5 by utilising small molecules to inhibit these signalling pathways. The small molecule LY2157299 is a TGF-β type I receptor kinase inhibitor and the small molecule Dorsomorphin is an inhibitor of BMP type I receptors ALK2, ALK3 and ALK6 (Bhola et al. 2013, Yu et al. 2008). Both compounds were first tested for cytotoxicity and effectiveness of signalling pathway blocking in vitro using 17IA4 cells. The first upper molars of CD1 mice were damaged to stimulate reactionary dentine formation and a collagen sponge was soaked in either 1 μM LY2157299 or 1 μM Dorsomorphin was used as a delivery vehicle. The sponges were placed on the exposed dentine and sealed with a layer of glass ionomer.

[8] = test system: TCF/Lef:H2B-GFP and Axin2-CreERT2 Wnt responsive cells; experiment: GFP immunohistochemistry of Wnt responsive cells in reporter mice 1 day after injury; format: in vivo, mouse
Description: (§2) Since Wnt/β-catenin signaling is required for reparative dentine formation we investigated if this pathway plays a role in reactionary dentine formation. The small molecule GSK3 antagonist Tideglusib was delivered on collagen sponges at the site of damage and sealed with glass ionomer. Sponge alone and MTA sealed with glass ionomer were used as controls. To identify whether cells responded to the drug, TCF/Lef:H2B-GFP, Axin2^−CreERT2; Rosa26−mTmG flox/+ and CD1 wild type mice were used. TCF/Lef:H2B-GFP reporter mice allowed the visualisation of Wnt active cells (ie. Cells receiving a Wnt signal), Axin2^−CreERT2; Rosa26−mTmG flox/+ mice were used to lineage trace Axin2-expressing cells and gene expression analysis via qPCR (as described in Example 1) was performed on pulp cells from CD1 mouse molars. The first molars of genetically modified mice were collected 1 day after the injury and immunohistochemistry was performed. Deparaffinised sections were retrieved with sodium citrate (pH 6) and incubated with chicken polyclonal anti-GFP antibody (1:500; Abcam, Cambridge, Mass., USA; ab13970) overnight at 4° C. Sections were washed and exposed to appropriate biotinylated secondary antibody, then horseradish peroxidase (HRP)-conjugated streptavidin-biotin antibody and washed with PBST. Immunoreactivity was visualized with MenaPath green chromogen kit (Bio SB). […]

[9] = test system: Axin2 (Wnt activity) in dental pulp; experiment: Axin2 qPCR of dental pulp one day after dentine injury without pulp exposure; format: in vivo, mouse
Method: All drugs were dissolved and diluted in DMSO.
as §2, with “PBST.” for “PBST. Immunoreactivity was visualized with MenaPath green chromogen kit (Bio SB).”

[10] = test system: mouse maxillary first molars; experiment: Reactionary dentine formation, non-exposed pulp injury model, micro-CT mineral content and linear measurement; format: in vivo; conditions: 50 nM, 4 weeks
Method: as §1
The exposed dentine was capped either with calcium hydroxide (Dycal; Dentsply) or mineral trioxide aggregate (MTA) (ProRoot MTA; Dentsply), or dry collagen sponge (Kolspon-Fish Collage Type 1; Eucare Ltd), or collagen sponge soaked in dimethyl sulfoxide (DMSO; SIGMA), or 50 nM Tideglusib, or 1 μM LY2157299, or 1 μM Dorsomorphin. All drugs were dissolved and diluted in DMSO. […]
Mice upper molars were dissected, fixed in 4% paraformaldehyde (PFA) for 24-hours at 4° C. and scanned using a Bruker Skyscan1272 micro-CT (pCT) scanner. […] The dentine thickness was measured using the “Line” function of the software. For the dentine thickness-analysis the distance between the center of the roof of the middle pulp horn and the floor of the injured dentine margin was measured. […] The region measured comprised only the site of injury. […]

Row | SMILES | Wnt activity / Axin2 expression (qPCR) in dental pulp cells [1] | MicroCT appearance of injury site ([2]; 4 weeks) | MicroCT appearance of injury site ([2]; 6 weeks) | Differentiation state of dental pulp cells [3] | Proliferation of dental pulp cells [3] | Pulp vitality [4] | BIO induction of Axin2 expression relative to CHIR99021 and Tideglusib ([5]; FIG. 1D) [×] | Wnt activity (Axin2 qPCR) [5] | Histology of reparative dentine formation ([6]; 4 weeks) | Histology of reparative dentine formation ([6]; 6 weeks) | Structure of reactionary dentine (histology) [7] | Amount of reactionary dentine formation (histology) compared with controls ([7]; 50 nM in collagen sponge, 4 weeks) | Pulp / tooth vitality ([7]; mouse, in vivo) | Axin2+ (GFP-positive) cells in the dental pulp ([8]; Axin2-CreERT2, Rosa26-mTmG mice, vs collagen sponge only) | Wnt responsive (TCF/LEF+, GFP) cells under the injury ([8]; TCF/Lef:H2B-GFP reporter mice, vs collagen sponge alone) | Wnt activity / early-response Axin2 expression (qPCR) ([9]; 1 day after injury without pulp exposure) | Axin2 expression compared to controls ([9]; 1 day after injury, FIG. 8E) [fold] | Mineral band thickness at the site of injury (linear measurement) vs collagen sponge alone ([10]; FIG. 9E) | Mineral content under the injury site (micro-CT) ([10]; vs collagen sponge alone, FIG. 9D)
1 | O=C1Nc2cc(Br)ccc2/C1=C1/Nc2ccccc2/C1=N\O [BIO, 6-bromoindirubin-3′-oxime] | significant upregulation of Wnt activity | mature mineral at the injury site | injury site filled with mature dentine | maintain human deciduous tooth dental pulp cells in the undifferentiated state | reduce proliferation | dental pulp remained vital | 4 | Wnt activity increases after 30 minutes of incubation and remains elevated | dense dentine formation at the injury site with vital pulp | filled the whole injury site from occlusal to pulp chamber roof; also recorded: new mature dentine formed where the sponge was placed filling the injury site |  |  |  |  |  |  |  |  | 
2 | Cc1cccc(-c2nn3c(c2-c2ccnc4ccc(C(N)=O)cc24)CCC3)n1 [LY2157299] |  |  |  |  |  |  |  |  |  |  | disorganised (globular) dentine; also recorded: atypical globular dentine without tubular reactionary dentine features |  |  |  |  |  |  |  | 
3 | O=c1sn(-c2cccc3ccccc23)c(=O)n1Cc1ccccc1 [Tideglusib, 4-Benzyl-2—(naphthalen-1-yl)-[1,2,4]thiadiazolidine-3,5-dione] | significant upregulation of Wnt activity | mature mineral at the injury site | mature reparative dentine formed at the injury site almost at the same Radiopacity as the primary/secondary dentine |  |  | dental pulp remained vital |  | Wnt activity increases after 30 minutes of incubation and remains elevated | dense dentine formation at the injury site with vital pulp | filled the whole injury site from occlusal to pulp chamber roof; also recorded: complete repair with vital dental pulp | normal tubular reactionary dentine formation | larger reactionary dentine secretion; also recorded: enhanced reactionary dentine formation | dental pulp remained vital | increase of TCF/LEF+cells and Axin2+ cells; also recorded: more GFP-positive cells | increase of TCF/LEF+cells; also recorded: increased local response to Wnt signalling | significant upregulation of Wnt activity | 2 | thicker mineral band | high mineral content; also recorded: increase of mature mineral formation
